Reference: ChEMBL document CHEMBL1667860, “Acridone alkaloids as potent inhibitors of cathepsin V” (Bioorg Med Chem, 2011)

Tests used:
Cathepsin L2 [1] = target: T1, Cathepsin L2 (Homo sapiens, UniProt O60911); assay: Inhibition of human recombinant cathepsin V expressed in Pichia pastoris by Lineweaver-Burk double-reciprocal plots
T1 sequence (O60911 whole entry): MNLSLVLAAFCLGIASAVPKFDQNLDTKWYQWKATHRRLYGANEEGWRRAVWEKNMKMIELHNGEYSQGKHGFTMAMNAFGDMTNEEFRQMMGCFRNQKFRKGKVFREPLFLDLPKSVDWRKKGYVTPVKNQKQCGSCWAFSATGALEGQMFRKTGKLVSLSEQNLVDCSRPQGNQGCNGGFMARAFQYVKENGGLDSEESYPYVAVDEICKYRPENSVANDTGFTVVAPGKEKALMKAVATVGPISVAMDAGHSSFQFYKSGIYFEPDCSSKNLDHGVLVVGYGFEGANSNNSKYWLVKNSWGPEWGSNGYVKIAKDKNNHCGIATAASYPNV

Cathepsin L2 [2] = target: T1, Cathepsin L2; assay: Inhibition of human recombinant cathepsin V expressed in Pichia pastoris

| SMILES | Ki (Cathepsin L2 [1]) [nM] | IC50 (Cathepsin L2 [2]) [nM] |
| --- | --- | --- |
| COc1c(O)c(CC=C(C)C)c(O)c2c(=O)c3c(CC=C(C)C)ccc(O)c3n(C)c12 | 500 | 2500 |
| COc1c2c(c(O)c3c(=O)c4cccc(O)c4n(C)c13)CC(C(C)(C)O)O2 (stereo not given) | 4400 | 5200 |
| COc1c(O)c2c(c3c(=O)c4cccc(O)c4n(C)c13)OC(C)(C)C(O)C2 (stereo not given) | 1700 | 2800 |
| Cn1c2c(O)cccc2c(=O)c2c(O)cc3c(c21)C=CC(C)(C)O3 | – | 48000 |
| CC(C)=CCc1c(O)cc2c(c1O)c(=O)c1c(CC=C(C)C)ccc(O)c1n2C | 1200 | 3900 |
| COc1c(OC)c(OC)c2c(c1O)c(=O)c1cccc(O)c1n2C [CITIBRASINE] | 200 | 1200 |
| COc1c(O)cc(O)c2c(=O)c3cccc(O)c3n(C)c12 [CITRUSININE-II] | 4200 | 10000 |

Results, then the molecule that gave them:

| Ki (Cathepsin L2 [1]) [nM] | IC50 (Cathepsin L2 [2]) [nM] | SMILES |
| --- | --- | --- |
| 1000 | 2200 | COc1cc(O)c2c(=O)c3cccc(O)c3n(C)c2c1OC [CITRUSININE-I] |
| 1100 | 2200 | COc1c(O)c(CC=C(C)C)c(O)c2c(=O)c3cccc(O)c3n(C)c12 [GLYCOCITRINE-IV] |
| 10000 | 25000 | CC(C)=CCc1c(O)cc(O)c2c(=O)c3cccc(O)c3n(C)c12 [GLYCOCITRINE-I] |
| – | 44000 | COc1c2c(c(O)c3c(=O)c4cccc(O)c4n(C)c13)C=CC(C)(C)O2 [PYRANOFOLINE] |
